Reference: article PMC10289334 (PLOS ONE, 2023)

Key:
FtFBPaseII = target: T1, FtFBPaseII (Francisella tularensis, UniProt Q5NEJ8); settings: low (suboptimal) Mn2+; active site of chain C
T1 construct: gene gplX

MtFBPaseII = target: T2, MtFBPaseII (Mycobacterium tuberculosis, UniProt P9WN21); format: binding
T2 construct: gene glpX; wild type; tetramer

[1] = target: Francisella tularensis class II fructose-1,6-bisphosphatase (FtFBPaseII), wild type (Francisella tularensis); experiment: crystal structure
crystal structure = target: the molecule itself; experiment: crystal structure

## O=P(O)(O)OC[C@H]1OC(O)(COP(=O)(O)O)[C@@H](O)[C@@H]1O (stereo partly shown) [F1,6BP]
FtFBPaseII
  X-ray crystal structure (Form E, 2.2 A): could be interpreted as what appeared to be a substrate molecule bound
MtFBPaseII
  X-ray crystal structure (Form C, 3.7 A): The final refined structure confirmed the presence of the F1,6BP substrate in both chains

## Francisella tularensis class II fructose-1,6-bisphosphatase (FtFBPaseII), wild type (enzyme)
[1]
  stoichiometry N: 4

B1: Mycobacterium tuberculosis class II fructose-1,6-bisphosphatase (MtFBPaseII), wild type (enzyme)
chain: MELVRVTEAGAMAAGRWVGRGDKEGGDGAAVDAMRELVNSVSMRGVVVIGEGEKDHAPMLYNGEEVGNGDGPECDFAVDPIDGTTLMSKGMTNAISVLAVADRGTMFDPSAVFYMNKIAVGPDAAHVLDITAPISENIRAVAKVKDLSVRDMTVCILDRPRHAQLIHDVRATGARIRLITDGDVAGAISACRPHSGTDLLAGIGGTPEGIIAAAAIRCMGGAIQAQLAPRDDAERRKALEAGYDLNQVLTTEDLVSGENVFFCATGVTDGDLLKGVRYYPGGCTTHSIVMRSKSGTVRMIEAYHRLSKLNEYSAIDFTGDSSAVYPLP
notes: also called Mt(Mg^2+)FBPaseII
Crystal structure
  stoichiometry N: 4
